Source: ChEMBL document CHEMBL1124997, “Mechanism and inhibition of cytochrome P-450 aromatase” (J Med Chem, 1990)

T1: Aromatase (Homo sapiens, UniProt P11511)
T1 sequence (P11511 whole entry): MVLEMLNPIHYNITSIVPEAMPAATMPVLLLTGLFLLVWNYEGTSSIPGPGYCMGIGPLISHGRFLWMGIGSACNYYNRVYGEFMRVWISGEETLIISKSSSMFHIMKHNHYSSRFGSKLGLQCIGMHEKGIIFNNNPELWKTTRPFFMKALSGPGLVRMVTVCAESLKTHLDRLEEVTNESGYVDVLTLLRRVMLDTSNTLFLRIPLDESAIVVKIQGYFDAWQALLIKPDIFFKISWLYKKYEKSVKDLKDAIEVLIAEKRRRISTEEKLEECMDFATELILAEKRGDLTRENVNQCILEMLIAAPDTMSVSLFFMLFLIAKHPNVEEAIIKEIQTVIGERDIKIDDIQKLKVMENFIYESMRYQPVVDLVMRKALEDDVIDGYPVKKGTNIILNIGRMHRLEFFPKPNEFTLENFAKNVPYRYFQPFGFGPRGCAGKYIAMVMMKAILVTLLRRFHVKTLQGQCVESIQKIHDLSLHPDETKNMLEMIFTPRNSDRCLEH

T2: Aromatase (Rattus norvegicus, UniProt P22443)
T2 sequence (P22443 whole entry): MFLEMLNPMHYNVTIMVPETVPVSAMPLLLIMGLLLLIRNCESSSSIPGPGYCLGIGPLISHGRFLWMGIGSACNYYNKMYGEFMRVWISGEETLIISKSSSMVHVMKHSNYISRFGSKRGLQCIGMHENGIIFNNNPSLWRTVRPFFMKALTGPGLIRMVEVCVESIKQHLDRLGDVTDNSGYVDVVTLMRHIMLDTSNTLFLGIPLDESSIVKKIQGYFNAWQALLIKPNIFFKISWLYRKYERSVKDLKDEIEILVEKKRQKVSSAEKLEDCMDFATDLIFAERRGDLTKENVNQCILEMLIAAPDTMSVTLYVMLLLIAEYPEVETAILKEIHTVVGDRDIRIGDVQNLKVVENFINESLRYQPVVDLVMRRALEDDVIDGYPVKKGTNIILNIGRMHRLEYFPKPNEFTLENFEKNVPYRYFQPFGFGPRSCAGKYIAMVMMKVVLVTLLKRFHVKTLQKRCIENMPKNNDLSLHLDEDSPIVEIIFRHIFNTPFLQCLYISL


Key:
Aromatase [1] = biological target: T1, Aromatase
Aromatase [2] = biological target: T1, Aromatase; assay: (§1) Binding affinity for Cytochrome P450 19A1
Aromatase [3] = biological target: T2, Aromatase
Aromatase [4] = biological target: T1, Aromatase; assay: Time-dependent irreversible inactivation of human placental Cytochrome P450 19A1
Aromatase [5] = biological target: T2, Aromatase; assay: as §1
[6] = substrate: C[C@]12CCC(=O)C=C1CCC1C2CC[C@@]2(C)C1C[C@@H](O)[C@@H]2O; assay: as §1; design: species or system Homo sapiens
[7] = substrate: C[C@]12CCC(=O)C=C1CC[C@@H]1[C@@H]2CC[C@]2(C)C(=O)CC[C@@H]12; assay: as §1; design: species or system Homo sapiens
[8] = substrate: C[C@]12CC[C@H]3[C@@H](CCC4=CC(=O)CC[C@@]43C)[C@@H]1CC[C@@H]2O; assay: (§2) Km for Cytochrome P450 19A1
[9] = substrate: C[C@]12CCC(=O)C=C1CC[C@@H]1[C@@H]2CC[C@]2(C)C(=O)CC[C@@H]12; assay: as §2

Molecule | Ki (Aromatase [1]) [nM] | other results
C[C@]12CCC(=O)C=C1C[C@@H](Sc1ccc(I)cc1)C1C2CC[C@]2(C)C(=O)CCC12 (stereo partly specified) | 12 | –
Clc1ccc(COC(Cn2cccc2)c2ccc(Cl)cc2Cl)cc1 (stereo unspecified) | – | IC50 (Aromatase [2]): 30 nM
C/C=C/[C@]12CCC(=O)C=C1CCC1C2CC[C@]2(C)C(=O)CCC12 (stereo partly specified) | 56 | –
Cn1nnc2ccc(C(c3ccc(Cl)cc3)n3cncn3)cc21 (stereo not drawn) [rac-VOROZOLE] | – | IC50 (Aromatase [3]): 3 nM
CSC[C@]12CCC(=O)C=C1CCC1C2CC[C@]2(C)C(=O)CCC12 (stereo partly specified) | 1 | –
C=C[C@]12CCC(=O)C=C1CCC1C2CC[C@]2(C)C(=O)CCC12 (stereo partly specified) | 3 | –
C[C@]12C=CC(=O)C=C1C=C[C@@H]1[C@@H]2CC[C@]2(C)C(=O)CC[C@@H]12 | 180 | –
C=C1C=C2CCC3C(CC[C@]4(C)C(=O)CCC34)[C@@]2(C)CC1 (stereo partly specified) | 4.7 | –
CC1(C)C[C@@]2(C)C(=CC1=O)CCC1C2CC[C@]2(C)C(=O)CCC12 (stereo partly specified) | 2.3 | –
O=c1cc(-c2ccccc2)oc2c1ccc1ccc(O)cc12 | 5 | –
C[C@]12CCC3C(CCC4=CC(=O)CC[C@@]43C3CS3)C1CCC2=O (stereo partly specified) | 75 | –
C[C@]12CCC3C(CCC4=CC(=O)CC[C@]43C3CS3)C1CCC2=O (stereo partly specified) | 1 | –
C[C@]12CCC(=O)C=C1C[C@@H](Sc1ccc(NC(=O)CBr)cc1)C1C2CC[C@]2(C)C(=O)CCC12 (stereo partly specified) | 33000 | kinact (Aromatase [4]): 0.00247 s⁻¹
C[C@]12CCC3C(CCC4=C(O)C(=O)CC[C@@]43C(F)F)C1CCC2=O (stereo partly specified) | – | IC50 (Aromatase [2]): 3300 nM
C[C@]12CCC(=O)C=C1[C@H](Br)CC1C2CC[C@@]2(C)C1CC[C@@H]2OC(=O)CBr (stereo partly specified) | 25000 | kinact (Aromatase [4]): 0.000457 s⁻¹
C[C@]12CCC(=O)C(O)=C1CC[C@@H]1[C@@H]2CC[C@]2(C)C(=O)CC[C@@H]12 [FORMESTANE] | 50 | –
C[C@]12C=CC(=O)C=C1CCC1C2CC[C@]2(C)OC(=O)CCC12 (stereo partly specified) | 35000 | –
CCC[C@]12CCC(=O)C=C1CCC1C2CC[C@]2(C)C(=O)CCC12 (stereo partly specified) | 3000 | –
C[C@]12CCC(=O)C(N)=C1CCC1C2CC[C@]2(C)C(=O)CCC12 (stereo partly specified) | 37 | –
Clc1ccc(C2c3ccc(Cl)cc3-c3ncncc32)cc1 (stereo unspecified) | – | Ki (Aromatase [5]): 24 nM
C[C@]12CCC(=O)C=C1C[C@@H](Sc1ccc(N=[N+]=[N-])cc1)C1C2CC[C@]2(C)C(=O)CCC12 (stereo partly specified) | – | kinact (Aromatase [4]): 0.00166 s⁻¹
C[C@@]12CCCC1C1CCC3=CC(=O)C=C[C@]3(C)C1CC2 (stereo partly specified) | 1100 | –
C[C@]12CCC3C(CCC4=CC(=O)CC[C@@]43C(F)F)C1CCC2=O (stereo partly specified) | 1 | kinact (Aromatase [4]): 0.000383 s⁻¹
CC[C@]12CCC(=O)C=C1CCC1C2CC[C@]2(C)C(=O)CCC12 (stereo partly specified) | 9 | –
Aromatase (Homo sapiens) (protein) MVLEMLNPIHYNITSIVPEAMPAATMPVLLLTGLFLLVWNYEGTSSIPGPGYCMGIGPLISHGRFLWMGIGSACNYYNRVYGEFMRVWISGEETLIISKSSSMFHIMKHNHYSSRFGSKLGLQCIGMHEKGIIFNNNPELWKTTRPFFMKALSGPGLVRMVTVCAESLKTHLDRLEEVTNESGYVDVLTLLRRVMLDTSNTLFLRIPLDESAIVVKIQGYFDAWQALLIKPDIFFKISWLYKKYEKSVKDLKDAIEVLIAEKRRRISTEEKLEECMDFATELILAEKRGDLTRENVNQCILEMLIAAPDTMSVSLFFMLFLIAKHPNVEEAIIKEIQTVIGERDIKIDDIQKLKVMENFIYESMRYQPVVDLVMRKALEDDVIDGYPVKKGTNIILNIGRMHRLEFFPKPNEFTLENFAKNVPYRYFQPFGFGPRGCAGKYIAMVMMKAILVTLLRRFHVKTLQGQCVESIQKIHDLSLHPDETKNMLEMIFTPRNSDRCLEH | – | Km [6]: 58 µM; Km [7]: 0.03 µM; Km [8]: 0.21 µM; Km [9]: 0.06 µM
